Assay results taken from patent publication US8617819B2, “Polymers for analyte detection” (Massachusetts Institute of Technology, priority 2004, dated 2013).

Columns and labels:
sheep erythrocytes = experiment: hemagglutination inhibition of sheep erythrocytes; assay type: cell-based
[1] = Stern-Volmer quenching of polymer 1 by streptavidin-free dyes; assay type: binding; details: free dye added to polymer 1, 50 mM Tris buffer pH 7.4
Description: This mechanism generally requires fairly close proximity between the donor and acceptor chromophores. To study these interactions, the Stern-Volmer (KSV) quenching constants were determined from fluorescence emission and lifetime measurements in 50 mM Tris buffer at pH 7.4. Upon the addition of the streptavidin-free fluorescent dyes (fluorescein, RhB, and sulforhodamine 101, the Texas Red™ parent dye) to polymer 1, the apparent KSV values were determined to be 26,300 M^−1, 91,800 M^−1 and 97,900 M^−1, respectively. […] The dyes therefore may have an inherent affinity for the conjugated polymer backbone. A more planar conformation and greater hydrophobic character for Texas Red™, compared to RhB and fluorescein, may permit better stacking and orbital interaction with the CP backbone, allowing for greater DET. In the case of dye-labeled streptavidin, biological recognition first may bring the dyes into closer proximity with the polymer. Conformational and hydrophobic characteristics of the dyes then may tailor the extent of orbital mixing with the polymer: the flatter Texas Red™ may interact more intimately with the planar conjugated polymer backbone then the other dyes. This may favor DET and can explain the better ET that was observed, even at decreased spectral overlap between the CP donor and dye acceptor.

[2] = thin film (solid phase) energy transfer / dye association assay; assay type: binding; details: for association of free dye with polymer thin films: polymers 3 and 4, thin films
Description: Thin film experiments with polymers 3 and 4 were also conducted in this example. Incubation with the dye-labeled streptavidin was performed in the presence of Triton X-100, a non-ionic detergent, to diminish non-specific binding. […] The spectra was scaled to 454 nm.
To perform energy transfer assays in solid phase, the following general protocol was used. The microscope coverslips were pretreated in 1,1,1,3,3,3-hexamethyldisilazane. The polymer solutions at 1 mg/ml in chloroform were spin-cast onto microscope coverslips at a spin rate of 3000 rpm for 1 minute. The coverslips were put under vacuum for 2 h, then were incubated in a solution of dye labeled streptavidin or dye for 1 h. The coverslips were then washed with deionized water, blotted dry and dried under vacuum for a minimum of 5 h. The excitation wavelength at 400 nm was chosen, and the emission spectrum was taken from 415 nm-700 nm.

[3] = tested on: mannose binding (wild type) E. coli strain; experiment: fluorescent staining / clustering of mannose binding (wild type) E. coli; assay type: cell-based; details: 30 minutes, OD600 1.0, washed twice with PBS
Description: (§1) Two bacterial strains that differed only in their mannose binding properties were used to assess whether the mannosylated PPE 22a could fluorescently stain E. coli. In addition to a strain that binds to mannose, a second strain that is mutated in its mannose binding protein (FimH) to abolish mannose binding was used. The non-functionalized polymer 21, the mannosylated polymer 22a, and 2′-fluorescein aminoethyl mannoside were individually incubated with these bacterial strains. After incubating a 1 ml bacterial suspension at an OD600 of 1.0 with the appropriate polymer or dye labeled mannose for 30 minutes, the suspensions were centrifuged to pellet the cells. The supernatant solution containing unbound polymer or dye labeled mannose was discarded and the cells were washed twice with phosphate buffered saline (PBS, pH 7.2). The bacteria were then resuspended in PBS. […]
(§2) Binding of mannosylated polymer to bacteria was imaged using laser scanning confocal microscopy and fluorescence microscopy. […]
(§3) FIGS. 8A-8B illustrate laser scanning confocal microscopy images. […] FIG. 8D is a conventional fluorescence spectra of polymer 22a in PBS (solid line) and normalized fluorescence spectra of a bacterial cluster obtained using confocal microscopy (dotted line).

[4] = tested on: E. coli strain mutated in its mannose binding protein (FimH); experiment: fluorescent staining / clustering of FimH mutant (non-mannose binding) E. coli; assay type: cell-based; details: 30 minutes, OD600 1.0, washed twice with PBS
Description: as §1, §2, §3

Compound	INHIBITING DOSE (sheep erythrocytes) [M]	apparent Stern-Volmer quenching constant KSV [1]	association of free dye with polymer thin films [2]	other results
NCCOC1O[C@H](CO)[C@@H](O)[C@H](O)[C@@H]1O (stereo partly drawn) [2′-Aminoethyl mannoside]	0.01			
CCN(CC)c1ccc2c(-c3ccccc3C(=O)O)c3ccc(=[N+](CC)CC)cc-3oc2c1.[Cl-] [RhB, rhodamine B]		91,800 M^−1	associated with both 3 and 4	
2′-Fluorescein aminoethyl mannoside	0.01			binding / fluorescent labelling of E. coli after incubation, pelleting and washing [3]: Neither polymer 21 nor the 2′-fluorescein aminoethyl mannoside appeared to bind either E. coli strain; binding / fluorescent labelling of E. coli after incubation, pelleting and washing [4]: Neither polymer 21 nor the 2′-fluorescein aminoethyl mannoside appeared to bind either E. coli strain
RhB-strept: rhodamine B-labeled streptavidin, about 4.6 dyes/protein				thin film ET of dye-labeled streptavidin ([2]; polymers 3 and 4, in the presence of Triton X-100): exhibited better ET than T-red-strept
O=S(=O)([O-])c1cc(S(=O)(=O)O)ccc1C1=c2cc3c4c(c2Oc2c1cc1c5c2CCCN5CCC1)CCC[N+]=4CCC3 [sulforhodamine 101]		97,900 M^−1	associated with neither	
